Experimental data from patent US12091426B2, “Bifunctional degraders of hematopoietic progenitor kinase and therapeutic uses thereof” (Nurix Therapeutics, Inc., priority 2021, dated 2024).

Biological target: T1, HPK1 (Homo sapiens, UniProt Q92918)
T1 construct: A HiBiT tag was introduced by CRISPR on the N terminus of HPK1 in Jurkat cells; host or cells: Jurkat cells (ATCC TIB-152), monoclonal line with CRISPR knock-in of HiBiT at the endogenous HPK1 locus
Assay: HPK1 Cellular HiBit Degradation Assay
Assay type: cell-based
Details: HiBiT HPK1 Jurkat cells, 24 hrs; for DC50: concentration at which 50% of HPK1 was remaining, read-out: DC50 Category; for Dmax: Jurkat, maximum degradation vs DMSO vehicle control, read-out: Dmax Category
In short: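 HPK1 levels are read by HiBiT luminescence after 24 h exposure of HiBiT-knock-in Jurkat cells to compound at 10 uM–0.1 nM final (11 points). Relative to DMSO (100%), DC50 is the concentration leaving 50% HPK1 from a variable-slope fit, and Dmax is 100 minus minimum remaining. Viability checked in-plate.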

T1 sequence (Q92918 whole entry): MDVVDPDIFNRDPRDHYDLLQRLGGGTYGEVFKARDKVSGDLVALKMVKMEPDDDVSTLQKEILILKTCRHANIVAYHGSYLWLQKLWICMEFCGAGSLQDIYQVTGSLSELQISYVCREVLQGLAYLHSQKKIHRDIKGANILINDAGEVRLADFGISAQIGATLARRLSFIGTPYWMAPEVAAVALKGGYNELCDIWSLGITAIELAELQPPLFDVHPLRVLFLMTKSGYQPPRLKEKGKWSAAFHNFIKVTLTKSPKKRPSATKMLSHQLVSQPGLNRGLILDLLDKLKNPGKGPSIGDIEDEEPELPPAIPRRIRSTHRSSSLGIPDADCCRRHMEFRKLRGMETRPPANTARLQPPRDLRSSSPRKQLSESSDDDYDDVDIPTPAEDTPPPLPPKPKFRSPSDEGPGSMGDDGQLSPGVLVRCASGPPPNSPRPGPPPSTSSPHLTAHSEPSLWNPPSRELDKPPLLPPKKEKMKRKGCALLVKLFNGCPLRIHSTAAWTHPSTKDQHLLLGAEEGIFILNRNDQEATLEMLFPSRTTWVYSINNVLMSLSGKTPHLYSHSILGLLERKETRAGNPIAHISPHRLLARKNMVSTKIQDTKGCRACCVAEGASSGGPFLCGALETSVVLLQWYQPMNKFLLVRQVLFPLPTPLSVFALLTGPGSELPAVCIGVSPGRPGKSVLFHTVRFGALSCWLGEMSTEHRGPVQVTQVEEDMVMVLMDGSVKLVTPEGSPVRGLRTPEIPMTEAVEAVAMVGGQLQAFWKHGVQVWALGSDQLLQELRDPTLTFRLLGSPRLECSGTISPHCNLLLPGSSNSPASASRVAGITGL

| DC50 [nM] | Dmax [%] | Compound |
| --- | --- | --- |
| 100 to 500 | 70 to 85 | CC(C)n1cnc2cc(-c3ccc4c(c3)N([C@H]3C[C@@H](N5CCCCC5)C3)C(=O)C43CCN(C(=O)[C@@H]4CCN(C(=O)[C@H]5CC[C@H](Oc6ccc(C7CCC(=O)NC7=O)cn6)CC5)C4)CC3)nc(Nc3ccncc3F)c21 (mixture of isomers) [Example 18, (3RS)-3-(6-{[(1R,4R)-4-[(3R)-3-[(6-{4-[(3-fluoropyridin-4-yl)amino]-3-(propan-2-yl)-3H-imidazo[4,5-c]pyridin-6-yl}-2-oxo-1-[(1S,3S)-3-(piperidin-1-yl)cyclobutyl]-1,2-dihydrospiro[indole-3,4′-piperidin]-1′-yl)carbonyl]pyrrolidine-1-carbonyl]cyclohexyl]oxy}pyridin-3-yl)piperidine-2,6-dione] |
| 100 to 500 | 70 to 85 | CC(C)n1cnc2cc(-c3ccc4c(c3)N([C@H]3C[C@@H](N5CCCCC5)C3)C(=O)C43CCN(C(=O)[C@H]4CC[C@@H](C(=O)N5CCN(c6ccc7c(c6)C(=O)N(C6CCC(=O)NC6=O)C7=O)CC5)CC4)CC3)nc(Nc3ccccc3F)c21 (mixture of isomers) [Example 31, 2-[(3RS)-2,6-dioxopiperidin-3-yl]-5-{4-[(1S,4s)-4-[(6-{4-[(2-fluorophenyl)amino]-3-(propan-2-yl)-3H-imidazo[4,5-c]pyridin-6-yl}-2-oxo-1-[(1S,3S)-3-(piperidin-1-yl)cyclobutyl]-1,2-dihydrospiro[indole-3,4′-piperidin]-1′-yl)carbonyl]cyclohexanecarbonyl]piperazin-1-yl}-2,3-dihydro-1H-isoindole-1,3-dione] |
| < 100 | 70 to 85 | CC(C)n1cnc2cc(-c3ccc4c(c3)N([C@H]3C[C@@H](N5CCCCC5)C3)C(=O)C43CCN(C(=O)C4(C5CCN(C(=O)C6CCN(c7ccc(C8CCC(=O)NC8=O)cn7)CC6)CC5)CCC4)CC3)nc(NC3CC3)c21 (mixture of isomers) [Example 300, (3RS)-3-[6-(4-{4-[1-({6-[4-(cyclopropylamino)-3-(propan-2-yl)-3H-imidazo[4,5-c]pyridin-6-yl]-2-oxo-1-[(1S,3S)-3-(piperidin-1-yl)cyclobutyl]-1,2-dihydrospiro[indole-3,4′-piperidin]-1′-yl}carbonyl)cyclobutyl]piperidine-1-carbonyl}piperidin-1-yl)pyridin-3-yl]piperidine-2,6-dione] |
| 100 to 500 | 70 to 85 | CC(C)n1cnc2cc(-c3ccc4c(c3)N([C@H]3C[C@@H](N5CCCCC5)C3)C(=O)C43CCN(C(=O)C4CCN(C(=O)[C@H]5CC[C@H](n6cc7cc(C8CCC(=O)NC8=O)ccc7n6)CC5)CC4)CC3)nc(NC3CC3)c21 (stereo partly drawn) [Example 179, 3-{2-[(1R,4R)-4-[4-({6-[4-(cyclopropylamino)-3-(propan-2-yl)-3H-imidazo[4,5-c]pyridin-6-yl]-2-oxo-1-[(1S,3S)-3-(piperidin-1-yl)cyclobutyl]-1,2-dihydrospiro[indole-3,4′-piperidin]-1′-yl}carbonyl)piperidine-1-carbonyl]cyclohexyl]-2H-indazol-5-yl}piperidine-2,6-dione] |
| 100 to 500 | 70 to 85 | CC(C)n1cnc2cc(-c3ccc4c(c3)N([C@H]3C[C@@H](N5CCCCC5)C3)C(=O)C43CCN(C(=O)C[C@@H]4CCCN(C(=O)CC5CCN(c6ccc(C7CCC(=O)NC7=O)cn6)CC5)C4)CC3)nc(NC3CC3)c21 (mixture of isomers) [Example 299, (3RS)-3-[6-(4-{2-[(3S)-3-(2-{6-[4-(cyclopropylamino)-3-(propan-2-yl)-3H-imidazo[4,5-c]pyridin-6-yl]-2-oxo-1-[(1S,3S)-3-(piperidin-1-yl)cyclobutyl]-1,2-dihydrospiro[indole-3,4′-piperidin]-1′-yl}-2-oxoethyl)piperidin-1-yl]-2-oxoethyl}piperidin-1-yl)pyridin-3-yl]piperidine-2,6-dione] |
| 100 to 500 | > 85 | CC(C)n1cnc2cc(-c3ccc4c(c3)N([C@H]3C[C@@H](N5CCCCC5)C3)C(=O)C43CCN(C(=O)C4CCN(C[C@H]5CC[C@H](C(=O)N6CCc7cc(C8CCC(=O)NC8=O)ccc7C6)CC5)CC4)CC3)nc(Nc3ccccc3F)c21 (mixture of isomers) [Example 46] |
| < 100 | 70 to 85 | CC(C)n1cnc2cc(-c3ccc4c(c3)N([C@H]3C[C@@H](N5CCCCC5)C3)C(=O)C43CCN(C(=O)[C@H]4CN(C(=O)C5CCN(c6ccc(C7CCC(=O)NC7=O)cc6)CC5)CC4(C)C)CC3)nc(NC3CC3)c21 (mixture of isomers) [Example 252, (3RS)-3-(4-{4-[(4R)-4-({6-[4-(cyclopropylamino)-3-(propan-2-yl)-3H-imidazo[4,5-c]pyridin-6-yl]-2-oxo-1-[(1S,3S)-3-(piperidin-1-yl)cyclobutyl]-1,2-dihydrospiro[indole-3,4′-piperidin]-1′-yl}carbonyl)-3,3-dimethylpyrrolidine-1-carbonyl]piperidin-1-yl}phenyl)piperidine-2,6-dione] |
| < 100 | 70 to 85 | CC(C)n1cnc2cc(-c3ccc4c(c3)N([C@H]3C[C@@H](N5CCCCC5)C3)C(=O)C43CCN(C(=O)C4CCN(C(=O)C5CCN(c6ccc(C7CCC(=O)NC7=O)c(F)c6)CC5)CC4)CC3)nc(NC3CC3)c21 (mixture of isomers) [Example 237, (3RS)-3-(4-{4-[4-({6-[4-(cyclopropylamino)-3-(propan-2-yl)-3H-imidazo[4,5-c]pyridin-6-yl]-2-oxo-1-[(1S,3S)-3-(piperidin-1-yl)cyclobutyl]-1,2-dihydrospiro[indole-3,4′-piperidin]-1′-yl}carbonyl)piperidine-1-carbonyl]piperidin-1-yl}-2-fluorophenyl)piperidine-2,6-dione] |

Continued, molecule first:

| Compound | DC50 [nM] | Dmax [%] |
| --- | --- | --- |
| CC(C(=O)N1CCN(C(=O)C2CCN(c3ccc(C4CCC(=O)NC4=O)cn3)CC2)CC1)N1CCC2(CC1)C(=O)N([C@H]1C[C@@H](N3CCCCC3)C1)c1cc(-c3cc4ncn(C(C)C)c4c(NC4CC4)n3)ccc12 (stereo partly drawn) [Example 172, 3-(6-{4-[4-(2-{6-[4-(cyclopropylamino)-3-(propan-2-yl)-3H-imidazo[4,5-c]pyridin-6-yl]-2-oxo-1-[(1S,3S)-3-(piperidin-1-yl)cyclobutyl]-1,2-dihydrospiro[indole-3,4′-piperidin]-1′-yl}propanoyl)piperazine-1-carbonyl]piperidin-1-yl}pyridin-3-yl)piperidine-2,6-dione] | < 100 | > 85 |
| CC(C)n1cnc2cc(-c3ccc4c(c3)N([C@H]3C[C@@H](N5CCCCC5)C3)C(=O)C43CCN(C(=O)C4(C)CCN(C(=O)C5CCN(c6ccc(N7CCC(=O)NC7=O)cn6)CC5(F)F)CC4)CC3)nc(NC3CC3)c21 (stereo partly drawn) [Example 153, 1-(6-{4-[4-({6-[4-(cyclopropylamino)-3-isopropylimidazo[4,5-c]pyridin-6-yl]-2-oxo-1-[(1S,3S)-3-(piperidin-1-yl)cyclobutyl]spiro[indole-3,4′-piperidin]-1′-yl}carbonyl)-4-methylpiperidine-1-carbonyl]-3,3-difluoropiperidin-1-yl}pyridin-3-yl)-1,3-diazinane-2,4-dione] | < 100 | 70 to 85 |
| CC(C)n1cnc2cc(-c3ccc4c(c3)N([C@H]3C[C@@H](N5CCC[C@H](F)C5)C3)C(=O)C43CCN(C(=O)C4(C)CCN(C(=O)C5CCN(c6ccc(C7CCC(=O)NC7=O)cc6)CC5)CC4)CC3)nc(NC3CC3)c21 (mixture of isomers) [Example 198, (3RS)-3-(4-{4-[4-({6-[4-(cyclopropylamino)-3-(propan-2-yl)-3H-imidazo[4,5-c]pyridin-6-yl]-2-oxo-1-[(1S,3S)-3-[(3S)-3-fluoropiperidin-1-yl]cyclobutyl]-1,2-dihydrospiro[indole-3,4′-piperidin]-1′-yl}carbonyl)-4-methylpiperidine-1-carbonyl]piperidin-1-yl}phenyl)piperidine-2,6-dione] | 100 to 500 | 70 to 85 |
| CC(C)n1cnc2cc(-c3ccc4c(c3)N([C@H]3C[C@@H](N5CCCCC5)C3)C(=O)C43CCN(C(=O)[C@H]4[C@@H]5C[C@H]4CN(C(=O)C4CCN(c6ccc(C7CCC(=O)NC7=O)cn6)CC4)C5)CC3)nc(NC3CC3)c21 (stereo partly drawn) [Example 239, 3-(6-(4-((1R,5S,6S)-6-(6-(4-(cyclopropylamino)-3-isopropyl-3H-imidazo[4,5-c]pyridin-6-yl)-2-oxo-1-((1S,3S)-3-(piperidin-1-yl)cyclobutyl)spiro[indoline-3,4′-piperidine]-1′-carbonyl)-3-Azabicyclo[3.1.1]heptane-3-carbonyl)piperidin-1-yl)pyridin-3-yl)piperidine-2,6-dione] | < 100 | 50 to 70 |
| CC(C)n1cnc2cc(-c3ccc4c(c3)N([C@H]3C[C@@H](N5CCCCC5)C3)C(=O)C43CCN(C(=O)c4ccc(CN5CCN(C(=O)C6CCN(c7ccc(C8CCC(=O)NC8=O)cn7)CC6)CC5)cc4)CC3)nc(NC3CC3)c21 (mixture of isomers) [Example 293, (3RS)-3-{6-[4-(4-{[4-({6-[4-(cyclopropylamino)-3-(propan-2-yl)-3H-imidazo[4,5-c]pyridin-6-yl]-2-oxo-1-[(1S,3S)-3-(piperidin-1-yl)cyclobutyl]-1,2-dihydrospiro[indole-3,4′-piperidin]-1′-yl}carbonyl)phenyl]methyl}piperazine-1-carbonyl)piperidin-1-yl]pyridin-3-yl}piperidine-2,6-dione] | 100 to 500 | 70 to 85 |
| CC(C)n1cnc2cc(-c3ccc4c(c3)N([C@H]3C[C@@H](N5CCCCC5)C3)C(=O)C43CCN(C(=O)C4(C)CCN(C(=O)C5CCN(c6ccc(C7CCC(=O)NC7=O)cn6)CC5)CC4)CC3)nc(Oc3ccccc3)c21 (stereo partly drawn) [Example 168, 3-(6-{4-[4-methyl-4-({2-oxo-6-[4-phenoxy-3-(propan-2-yl)-3H-imidazo[4,5-c]pyridin-6-yl]-1-[(1S,3S)-3-(piperidin-1-yl)cyclobutyl]-1,2-dihydrospiro[indole-3,4′-piperidin]-1′-yl}carbonyl)piperidine-1-carbonyl]piperidin-1-yl}pyridin-3-yl)piperidine-2,6-dione] | < 100 | > 85 |
